These results are taken from paper PMC6017193, “Structure-Based Discovery of a Series of 5H-Pyrrolo[2,3-b]pyrazine FGFR Kinase Inhibitors” (Molecules : A Journal of Synthetic Chemistry and Natural …, 2018).

One assay addresses T1, FGFR1 (Homo sapiens, UniProt P11362).
T1 construct: purchased Millipore
Put plainly: ELISA kinase assay, FGFR1 enzymatic activity. The format is biochemical. The conditions noted are these: for inhibition at 0.01 µM / inhibition at 0.1 µM / inhibition at 1 µM / FGFR1 Inhibition (%): mean of two separate experiments; for IC50: mean ± SD from two separate experiments. The method, then: The effects of compounds on the activities of indicated (FGFR1 and c-Met) kinases were determined using enzyme-linked immunosorbent assays (ELISAs) with purified recombinant proteins. Briefly, 20 μg/mL poly (Glu, Tyr)4:1 (Sigma, St. Louis, MO, USA) was precoated in 96-well plates as a substrate. A 50-μL aliquot of 10 μmol/L ATP solution diluted in kinase reaction buffer (50 mmol/L HEPES (pH 7.4), 50 mmol/L MgCl2, 0.5 mmol/L MnCl2, 0.2 mmol/L Na3VO4, and 1 mmol/L DTT) was added to each well; 1 μL of various concentrations of compounds diluted in 1% DMSO (v/v) (Sigma) were then added to each reaction well. DMSO (1%, v/v) was used as the negative control. The kinase reaction was initiated by the addition of purified tyrosine kinase proteins FGFR1 (Millipore, Darmstadt, Germany) or c-Met (Millipore) diluted in 49 μL of kinase reaction buffer. After incubation for 60 min at 37 °C, the plate was washed three times with phosphate-buffered saline (PBS) containing 0.1% Tween 20 (T-PBS). Anti-phosphotyrosine (PY99) antibody (Sanra Cruz, Dallas, TX, USA) (100 μL; 1:500, diluted in 5 mg/mL bovine serum albumin (BSA) T-PBS) was then added. After a 30-min incubation at 37 °C, the plate was washed three times, and 100 μL of horseradish peroxidase-conjugated goat anti-mouse IgG (Calbiochem, Shanghai, China) (1:2000, diluted in 5 mg/mL BSA T-PBS) was added. The plate was then incubated at 37 °C for 30 min, and washed three times. A 100-μL aliquot of a solution containing 0.03% H2O2 and 2 mg/mL o-phenylenediamine in 0.1 mol/L citrate buffer (pH 5.5) was added. The reaction was terminated by the addition of 50 μL of 2 mol/L H2SO4 as the color changed, and the plate was analyzed using a multi-well spectrophotometer (SpectraMAX 190, Molecular Devices, Palo Alto, CA, USA) at 490 nm. The inhibition rate (%) was calculated using the following equation:IR = [1 − (A490/A490control)] × 100%.(1) where IR, A490, and A490control are the inhibition rate, the absorbance value of the tested compound at 490 nm, and the absorbance value of the negative control compound at 490 nm, respectively. The IC50 values were calculated from the inhibition curves in two separate experiments.
(ELISA stands for enzyme-linked immunosorbent assay.)

Assay [1] relates to KG1 leukemia cell line harboring FGFR1OP-FGFR1 fusion. Put plainly: Cell proliferation assay in KG1 cells (SRB or MTT, 72 h). The conditions noted are these: Homo sapiens, KG-1, mean ± SD from two separate experiments, read-out: KG1 IC50 (antiproliferation activity). The format is cell-based. Here is the method:
Cell proliferation was examined in a FGFR1-translocated KG1 leukemia cell line harboring FGFR1OP-FGFR1 fusion. The original KG1 cell line was purchased from ATCC (CRL-8031), and cultured according the ATCC standard protocol. Cells were seeded in 96-well tissue culture plates. On the next day, the cells were exposed to various concentrations of compounds and further cultured for 72 h. Cell proliferation was then determined using sulforhodamine B (SRB, from Sigma-Aldrich, St Louis, MO, USA) or the thiazolyl blue tetrazolium bromide (MTT, from Sigma-Aldrich, St Louis, MO, USA) assay. The IC50 values were calculated by concentration- response curve fitting using the four-parameter method.

T1 sequence (P11362 22-822): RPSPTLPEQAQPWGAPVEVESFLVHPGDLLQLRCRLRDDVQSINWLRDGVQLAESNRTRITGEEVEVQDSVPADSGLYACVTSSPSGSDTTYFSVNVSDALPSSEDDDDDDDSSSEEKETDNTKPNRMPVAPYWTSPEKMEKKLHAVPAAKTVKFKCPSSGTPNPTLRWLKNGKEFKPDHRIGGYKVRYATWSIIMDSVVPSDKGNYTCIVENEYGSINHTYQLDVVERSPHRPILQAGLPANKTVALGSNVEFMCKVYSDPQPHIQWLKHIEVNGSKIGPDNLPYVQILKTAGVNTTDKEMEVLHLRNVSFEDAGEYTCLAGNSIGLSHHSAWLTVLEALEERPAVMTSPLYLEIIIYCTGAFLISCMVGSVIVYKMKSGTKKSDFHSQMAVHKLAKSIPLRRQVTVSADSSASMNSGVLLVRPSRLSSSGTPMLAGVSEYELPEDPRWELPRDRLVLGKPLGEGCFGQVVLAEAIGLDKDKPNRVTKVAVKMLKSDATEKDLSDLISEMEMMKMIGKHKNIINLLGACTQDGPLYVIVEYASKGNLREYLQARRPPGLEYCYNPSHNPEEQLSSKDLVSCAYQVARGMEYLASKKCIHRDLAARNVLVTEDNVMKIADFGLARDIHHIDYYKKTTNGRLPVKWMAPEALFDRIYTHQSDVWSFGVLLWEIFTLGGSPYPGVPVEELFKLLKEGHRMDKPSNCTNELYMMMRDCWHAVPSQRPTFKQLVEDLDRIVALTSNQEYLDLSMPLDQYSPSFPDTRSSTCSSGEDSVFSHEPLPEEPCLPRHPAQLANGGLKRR

With `CCOC(=O)Cn1cc(-c2cnc3ccn(S(=O)(=O)c4cn(CCF)cn4)c3n2)cn1` [Compound 20, Ethyl 2-(4-(5-((1-(2-fluoroethyl)-1H-imidazol-4-yl)sulfonyl)-5H-pyrrolo[2,3-b]pyrazin-3-yl)-1H-pyrazol-1-yl)acetate], on FGFR1 (0.01 μM (10 nM)), 0.01 µM produced 7.2% inhibition. The inhibition (in general, the relative decrease from the control value, in per cent) at 0.1 µM at FGFR1 (0.1 μM) stood at 5.4%. Besides, on FGFR1 (1 μM), the inhibition at 1 µM came out at 49.6%.

As to `CNC(=O)Cn1cc(-c2cnc3ccn(S(=O)(=O)c4cn(CCF)cn4)c3n2)cn1` [Compound 21, 2-(4-(5-((1-(2-Fluoroethyl)-1H-imidazol-4-yl)sulfonyl)-5H-pyrrolo[2,3-b]pyrazin-3-yl)-1H-pyrazol-1-yl)-N-methylacetamide], the inhibition at 0.01 µM on FGFR1 (0.01 μM (10 nM)) is 12.5%. Further, on FGFR1 (0.1 μM), the inhibition at 0.1 µM was found to be 14.9%. For the same compound, the inhibition at 1 µM against FGFR1 (1 μM) was found to be 65.6%.

In turn, `CN(C)C(=O)Cn1cc(-c2cnc3ccn(S(=O)(=O)c4cn(CCF)cn4)c3n2)cn1` [Compound 22, 2-(4-(5-((1-(2-Fluoroethyl)-1H-imidazol-4-yl)sulfonyl)-5H-pyrrolo[2,3-b]pyrazin-3-yl)-1H-pyrazol-1-yl)-N,N-dimethylacetamide] registered an inhibition at 0.01 µM against FGFR1 (0.01 μM (10 nM)) of 0.4%. In addition, the inhibition at 0.1 µM against FGFR1 (0.1 μM) is 2.5%. Testing at 1 µM on FGFR1 (1 μM) gave an inhibition of 15.3%.

At FGFR1 (0.01 μM (10 nM)), `CS(=O)(=O)n1cc(-c2cnc3ccn(S(=O)(=O)c4cn(CCF)cn4)c3n2)cn1` [Compound 23, 5-((1-(2-Fluoroethyl)-1H-imidazol-4-yl)sulfonyl)-3-(1-(methylsulfonyl)-1H-pyrazol-4-yl)-5H-pyrrolo[2,3-b]pyrazine] showed an inhibition at 0.01 µM of 20.9%. The compound further yielded an inhibition at 0.1 µM against FGFR1 (0.1 μM) of 37.1%. Moreover, on FGFR1 (1 μM), 1 µM produced 82.3% inhibition.

In turn, `O=S(=O)(c1cn(CCF)cn1)n1ccc2ncc(-c3cnn(S(=O)(=O)C4CC4)c3)nc21` [Compound 24, 3-(1-(Cyclopropylsulfonyl)-1H-pyrazol-4-yl)-5-((1-(2-fluoroethyl)-1H-imidazol-4-yl)sulfonyl)-5H-pyrrolo[2,3-b]pyrazine] showed an inhibition at 0.01 µM against FGFR1 (0.01 μM (10 nM)) of 16.6%. On FGFR1 (0.1 μM), this compound yielded an inhibition at 0.1 µM of 13.5%. Further, the inhibition at 1 µM at FGFR1 (1 μM) is 29.5%.

Turning to `COC(=O)C(C(=O)OC)n1cc(-c2cnc3ccn(S(=O)(=O)c4cn(CCF)cn4)c3n2)cn1` [Compound 25, Dimethyl 2-(4-(5-((1-(2-fluoroethyl)-1H-imidazol-4-yl)sulfonyl)-5H-pyrrolo[2,3-b]pyrazin-3-yl)-1H-pyrazol-1-yl)malonate], at 0.01 µM the inhibition at FGFR1 (0.01 μM (10 nM)) was 23.5%. Besides, the inhibition at 0.1 µM against FGFR1 (0.1 μM) was found to be 46.5%. The inhibition at 1 µM against FGFR1 (1 μM) is 83%.

On to `CCOC(=O)C(C(=O)OCC)n1cc(-c2cnc3ccn(S(=O)(=O)c4cn(CCF)cn4)c3n2)cn1` [Compound 26, Diethyl 2-(4-(5-((1-(2-fluoroethyl)-1H-imidazol-4-yl)sulfonyl)-5H-pyrrolo[2,3-b]pyrazin-3-yl)-1H-pyrazol-1-yl)malonate], for which the inhibition at 0.01 µM on FGFR1 (0.01 μM (10 nM)) was found to be 26.8%. Further, 0.1 µM produced 33.6% inhibition against FGFR1 (0.1 μM). Moreover, on FGFR1 (1 μM), the inhibition at 1 µM is 69%.

As to `O=S(=O)(c1c[nH]cn1)n1ccc2ncc(-c3cn[nH]c3)nc21` [Compound 27, 5-((1H-Imidazol-4-yl)sulfonyl)-3-(1H-pyrazol-4-yl)-5H-pyrrolo[2,3-b]pyrazine], the IC50 in assay [1] was determined as 187 ± 17.2 nM; against FGFR1, 15.7 ± 4.8 nM. The compound further yielded an inhibition at 0.01 µM on FGFR1 (0.01 μM (10 nM)) of 27.9%. On FGFR1 (0.1 μM), testing at 0.1 µM gave an inhibition of 71.9%. Moreover, 1 µM produced 90.7% inhibition on FGFR1 (1 μM).

Turning to `Cn1cnc(S(=O)(=O)n2ccc3ncc(-c4cn[nH]c4)nc32)c1` [Compound 28, 5-((1-Methyl-1H-imidazol-4-yl)sulfonyl)-3-(1H-pyrazol-4-yl)-5H-pyrrolo[2,3-b]pyrazine], the IC50 in assay [1] worked out at 98.5 ± 19.1 nM; at FGFR1, 15.4 ± 3 nM. At 0.01 µM the inhibition at FGFR1 (0.01 μM (10 nM)) was 12.5%. On FGFR1 (0.1 μM), this compound gave an inhibition at 0.1 µM of 63.2%. This compound displayed an inhibition at 1 µM on FGFR1 (1 μM) of 88.8%.

Consider `CCn1cnc(S(=O)(=O)n2ccc3ncc(-c4cn[nH]c4)nc32)c1` [Compound 29, 5-((1-ethyl-1H-imidazol-4-yl)sulfonyl)-3-(1H-pyrazol-4-yl)-5H-pyrrolo[2,3-b]pyrazine], for which the IC50 stood at 17.4 ± 8.7 nM in assay [1] and 3 ± 0.7 nM on FGFR1. Further, the inhibition at 0.01 µM on FGFR1 (0.01 μM (10 nM)) stood at 53.7%. The same compound gave an inhibition at 0.1 µM against FGFR1 (0.1 μM) of 79.5%. For the same compound, on FGFR1 (1 μM), testing at 1 µM gave an inhibition of 94.6%.

For `CC(C)n1cnc(S(=O)(=O)n2ccc3ncc(-c4cn[nH]c4)nc32)c1` [Compound 30], the inhibition at 0.01 µM against FGFR1 (0.01 μM (10 nM)) came to 40.4%. Further, the inhibition at 0.1 µM at FGFR1 (0.1 μM) was found to be 77.1%. At FGFR1 (1 μM), this compound showed an inhibition at 1 µM of 94.5%.

On FGFR1 (0.01 μM (10 nM)), `CC(C)Cn1cnc(S(=O)(=O)n2ccc3ncc(-c4cn[nH]c4)nc32)c1` [Compound 31, 5-((1-Isobutyl-1H-imidazol-4-yl)sulfonyl)-3-(1H-pyrazol-4-yl)-5H-pyrrolo[2,3-b]pyrazine] registered an inhibition at 0.01 µM of 13.9%. Moreover, the inhibition at 0.1 µM against FGFR1 (0.1 μM) is 19.9%. Also, testing at 1 µM on FGFR1 (1 μM) gave an inhibition of 37.1%.

At FGFR1 (0.01 μM (10 nM)), `O=S(=O)(c1cn(C2CCCC2)cn1)n1ccc2ncc(-c3cn[nH]c3)nc21` [Compound 32, 5-((1-Cyclopentyl-1H-imidazol-4-yl)sulfonyl)-3-(1H-pyrazol-4-yl)-5H-pyrrolo[2,3-b]pyrazine] had an inhibition at 0.01 µM of 4.9%. The compound also displayed an inhibition at 0.1 µM at FGFR1 (0.1 μM) of 20.1%. In addition, the inhibition at 1 µM on FGFR1 (1 μM) came out at 71.7%.

On FGFR1 (0.01 μM (10 nM)), `CNC(=O)Cn1cnc(S(=O)(=O)n2ccc3ncc(-c4cn[nH]c4)nc32)c1` [Compound 33, 2-(4-((3-(1H-Pyrazol-4-yl)-5H-pyrrolo[2,3-b]pyrazin-5-yl)sulfonyl)-1H-imidazol-1-yl)-N-methylacetamide] returned an inhibition at 0.01 µM of 19.9%. Besides, the inhibition at 0.1 µM at FGFR1 (0.1 μM) is 43.8%. In addition, the inhibition at 1 µM against FGFR1 (1 μM) turned out to be 82.4%.

`O=S(=O)(c1cnn2cccnc12)n1ccc2ncc(-c3cn[nH]c3)nc21` [Compound 34, 3-(1H-Pyrazol-4-yl)-5-(pyrazolo[1,5-a]pyrimidin-3-ylsulfonyl)-5H-pyrrolo[2,3-b]pyrazine] displayed an inhibition at 0.1 µM at FGFR1 (0.1 μM) of 26.4%. In addition, the inhibition at 1 µM at FGFR1 (1 μM) stood at 73.9%.

`O=S(=O)(c1cnc2cccnn12)n1ccc2ncc(-c3cn[nH]c3)nc21` [Compound 35, 5-(Imidazo[1,2-b]pyridazin-3-ylsulfonyl)-3-(1H-pyrazol-4-yl)-5H-pyrrolo[2,3-b]pyrazine] yielded an inhibition at 0.01 µM against FGFR1 (0.01 μM (10 nM)) of 31.8%. On FGFR1 (0.1 μM), this compound had an inhibition at 0.1 µM of 68.7%. This compound also gave an inhibition at 1 µM against FGFR1 (1 μM) of 90.6%.

With “Methyl 2-(4-(5-((1-(2-fluoroethyl)-1H-imidazol-4-yl)sulfonyl)-5H-pyrrolo[2,3-b]pyrazin-3-yl)-1H-pyrazol-1-yl)acetate [Compound 17]”, the “FGFR1 Inhibition (%)” value on FGFR1 (0.01 μM (10 nM)) was −3.3%; on FGFR1 (0.1 μM) it was 15.6%; on FGFR1 (1 μM), 56.8%.
